Measured values published in patent US5530110A, “4-ethoxy-5-fluoro-2'-deoxyuridine” (City of Hope, priority 1994, dated 1996).
pEC50: −log10 of the molar value. Like-named read-outs stand apart in the source and are kept apart here.

Columns and labels:
CCRF-CEM cells = test: Cytostatic activity (growth inhibition) of CCRF-CEM cells in culture; assay type: cell-based; details: Homo sapiens, 96 h
Method: Cell culture and cytostatic activity (growth inhibition): The human T-cell line CCRF-CEM was obtained from J. S. Holcenberg, Childrens Hospital of Los Angeles. Maintenance of cultures in RPMI 1640 medium and growth inhibition assays were carried out as previously described^24 except that iron-supplemented bovine calf serum was used routinely in place of dialyzed fetal bovine serum and inhibition of cell growth was based on the culture densities after four days without dilution of the cultures. […] Culture densities were also determined after three days to check that the cell growth continued in cultures without cytotoxic agents.
CCRF- CEM cells were a gift from Dr. John Holcenberg and were grown in suspension as previously described.

[1] = Relative partition coefficients between 0.1M phosphate buffer, pH 7.0 and 1-octanol; assay type: physicochemical; details: for logD: phosphate buffer / 1-octanol
[2] = Hydrolysis of the alkoxy derivatives to FdU in aqueous solution; assay type: physicochemical; details: for conversion to FdU in aqueous solution / dependence of hydrolysis rate on hydroxide concentration: in words; for dependence of hydrolysis rate on hydroxide concentration: data not shown; for half-life at 150 µM: pH 11, 25°, 1.5×10^-4 M in unbuffered deionized water adjusted with NaOH or HCl, read-out: conversion half life (4→1) (converted)
Method: In aqueous solution, the 4-alkoxy derivatives (4) are converted to FdU (1). […] The reaction is both acid and base catalyzed. At pH 11, the half lives for the conversion are 3.3 and 12.5 hours, respectively for the methoxy (4a) and ethoxy (4b) derivatives.
Hydrolysis of the alkoxy derivatives (4a and 4b) Solutions of 4-methoxy (4a) and 4-ethoxy,5-fluoro, 2'-deoxyuridine (4b) (1.5×10^-4 M) were prepared in unbuffered, deionized water. The pH of the solutions was adjusted with the addition of 1N NaOH or 1N HCl. […] The UV spectrum obtained upon completion of the hydrolysis in both with both compounds 4a and 4b are indistinguishable from FdU^9. […] (data not shown).

[3] = test system: human erythrocytes and lymphocytes; details: in words; cited from earlier work
[4] = AZT over dT; cited from earlier work
[5] = test system: plasma thymidine phosphorylase; details: in words; cited from earlier work
thymidylate synthase = details: via kinase and deamination to FdUMP; in words; cited from earlier work
DNA 5-methylcytosine = details: in words; cited from earlier work
cellular DNA = details: cited from earlier work
[6] = CCRF-CEM growth inhibition, four days, triplicate wells, read-out: EC50
[7] = 0.1M phosphate buffer, pH 7.0 / 1-octanol, read-out: relative partition coefficient (converted)

Compound	pEC50 (CCRF-CEM cells; [6])	lipophilicity relative to FdU ([1]; pH 7) [fold]	logD [1, 7]	dependence of hydrolysis rate on hydroxide concentration [2]	half-life at 150 µM [2] [h]	conversion to FdU in aqueous solution [2]	catabolism via plasma thymidine phosphorylase [5]	other results
Cc1cn([C@H]2C[C@H](N=[N+]=[N-])[C@@H](CO)O2)c(=O)[nH]c1=O [AZT]	–	–	–	–	–	–	–	cell entry [3]: can enter human erythrocytes and lymphocytes by nonfacilitated diffusion; increased lipophilicity over dT [4]: 20 fold
Nc1nc(=O)n([C@H]2C[C@H](O)[C@@H](CO)O2)cc1F [FdC (5), 5-Fluoro, 2'-deoxycytidine]	8.16	–	-1.55	–	–	–	–	inhibition of thymidylate synthase (thymidylate synthase): inhibition of thymidylate synthase; decrease in DNA 5-methylcytosine levels (DNA 5-methylcytosine): dramatic decreases in DNA 5-methylcytosinelevels; relation of DNA incorporation to cytotoxicity (cellular DNA): level of FdC incorporation is proportional to cytotoxicity
O=c1[nH]cc(F)c(=O)[nH]1 [fluorouracil, 5-fluorouracil, reference compound]	–	–	–	–	–	–	–	pEC50 (CCRF-CEM cells; CCRF-CEM): 5.30
O=c1[nH]c(=O)n([C@H]2C[C@H](O)[C@@H](CO)O2)cc1F [FdU (1), reference compound]	8.05	–	–	–	–	–	cleavage via plasma thymidine phosphorylase	logD ([1]; pH 7): -1.28

Continued, in another order:

pEC50 (CCRF-CEM cells; [6])	lipophilicity relative to FdU ([1]; pH 7) [fold]	logD [1, 7]	dependence of hydrolysis rate on hydroxide concentration [2]	half-life at 150 µM [2] [h]	Compound	conversion to FdU in aqueous solution [2]	catabolism via plasma thymidine phosphorylase [5]	other results
5.74	14.7	-0.108	proportional to [^- OH]	12.5	CCOc1nc(=O)n([C@H]2C[C@H](O)[C@@H](CO)O2)cc1F [4-ethoxyFdU (4b), 4-Ethoxy, 5-fluoro, 2'-deoxyuridine]	converted quantitatively to FdU in aqueous solution	–	half-life ([2]; water, pH 11, aqueous solution, read-out: half life for the conversion to FdU (converted)): 12.5 h
5.74	4.5	-0.62	proportional to [^- OH]	2.2	COc1nc(=O)n([C@H]2C[C@H](O)[C@@H](CO)O2)cc1F [4-methoxyFdU (4a), 4-Methoxy, 5-fluoro, 2'-deoxyuridine]	converted quantitatively to FdU in aqueous solution	neither deoxycytidine derivatives^25 nor 4-methoxy-5-fluoro-2'deoxyuridine^26 are catabolized via this pathway	–
